# Data reported in the Deep4Chem optical property database.
# Assay: photoluminescence quantum yield (fraction); solvent given as SMILES
# [1] = in O=P(c1ccccc1)(c1ccccc1)c1ccccc1Oc1ccccc1P(=O)(c1ccccc1)c1ccccc1
smiles,measurement,setting,value
CC(C)[Si](C#Cc1c2nc3c(nc2c(C#C[Si](C(C)C)(C(C)C)C(C)C)c2nc4ccccc4nc12)C1c2ccccc2C3c2ccccc21)(C(C)C)C(C)C,photoluminescence quantum yield,in CCCCCC,0.21
COc1ccc(/C=C2\OC(=O)c3ccccc32)cc1,photoluminescence quantum yield,in CC(C)=O,0.01
same,photoluminescence quantum yield,in CC(C)CO,0.07
same,photoluminescence quantum yield,in CC(C)O,0.1
same,photoluminescence quantum yield,in CCCO,0.13
same,photoluminescence quantum yield,in CCO,0.14
same,photoluminescence quantum yield,in CCOC(C)=O,0.008
same,photoluminescence quantum yield,in CCOCC,0.001
same,photoluminescence quantum yield,in CO,0.14
N#Cc1cnc(-c2c3ccccc3c(-c3ncc(C#N)cn3)c3ccccc23)nc1,photoluminescence quantum yield,in CCO,0.16
same,photoluminescence quantum yield,in ClCCl,0.54
F[B-]1(F)n2c(Nc3cccc4cccnc34)ccc2C(c2ccccc2)=C2C=CC(Cl)=[N+]21,photoluminescence quantum yield,in C1CCCCC1,0.17
same,photoluminescence quantum yield,in CC#N,0.0024
same,photoluminescence quantum yield,in Cc1ccccc1,0.04
same,photoluminescence quantum yield,in ClC(Cl)Cl,0.01
Cc1ccc(C)n1-c1ccc(N(C)C)cc1,photoluminescence quantum yield,in CC#N,0.27
same,photoluminescence quantum yield,in CCCCCC,0.11
CCN(CC)c1ccc2cc(-c3nc4cc(C(=O)Nc5ccccc5Cl)ccc4o3)c(=O)oc2c1,photoluminescence quantum yield,in ClCCl,0.23
CN(C)c1ccc2c3c(c(=O)oc2c1)C=c1cc2c(cc1O3)=[N+](CCC(=O)O)CCC2,photoluminescence quantum yield,in CC#N,0.242
same,photoluminescence quantum yield,in CO,0.166
same,photoluminescence quantum yield,in ClCCl,0.685
same,photoluminescence quantum yield,in O,0.041
Cc1cc(C)c(C2=C3C=C(/C=C/C(=O)OC(C)(C)C)C=[N+]3[B-](F)(F)n3c2ccc3N2CCOCC2)c(C)c1,photoluminescence quantum yield,in CC#N,0.13
same,photoluminescence quantum yield,in CCCCCC,0.88
same,photoluminescence quantum yield,in CN(C)C=O,0.15
same,photoluminescence quantum yield,in CO,0.21
same,photoluminescence quantum yield,in Cc1ccccc1,0.64
same,photoluminescence quantum yield,in ClCCl,0.49
c1csc(-n2c3ccccc3c3ccccc32)c1,photoluminescence quantum yield,in ClCCl,0.014
F[B-]1(F)n2c(ccc2-c2ccccc2)C(c2ccc(I)cc2)=C2C=CC(c3ccccc3)=[N+]21,photoluminescence quantum yield,in ClC(Cl)Cl,0.2
Clc1ccc(/C=C/c2ccncn2)cc1,photoluminescence quantum yield,in ClCCl,0.01
CN(C)c1ccc2nc(-c3ccc(C(=O)OC[C@H](NC(=O)OC(C)(C)C)C(=O)OCc4ccccc4)cc3)sc2c1,photoluminescence quantum yield,in C1CCCCC1,0.86
same,photoluminescence quantum yield,in CC#N,0.94
same,photoluminescence quantum yield,in CC(C)O,0.9
same,photoluminescence quantum yield,in CO,0.68
same,photoluminescence quantum yield,in CS(C)=O,0.94
same,photoluminescence quantum yield,in ClC(Cl)Cl,0.98
same,photoluminescence quantum yield,in c1ccccc1,0.92
CC(=O)c1c2c(cc3cc(N(C)C)ccc13)CCC2,photoluminescence quantum yield,in C1CCCCC1,0.08
same,photoluminescence quantum yield,in C1CCOC1,0.34
same,photoluminescence quantum yield,in C1COCCO1,0.38
same,photoluminescence quantum yield,in CC#N,0.18
same,photoluminescence quantum yield,in CCO,0.03
same,photoluminescence quantum yield,in CS(C)=O,0.37
same,photoluminescence quantum yield,in Cc1ccccc1,0.25
same,photoluminescence quantum yield,in ClC(Cl)Cl,0.41
same,photoluminescence quantum yield,in ClCCl,0.82
CCOC(=O)c1sc2nc(-c3ccccc3)c(C)c(C#N)c2c1N,photoluminescence quantum yield,in C1COCCO1,0.024
same,photoluminescence quantum yield,in CC#N,0.009
same,photoluminescence quantum yield,in CCOC(C)=O,0.027
same,photoluminescence quantum yield,in ClC(Cl)Cl,0.037
same,photoluminescence quantum yield,in c1ccccc1,0.047
COc1ccc(-c2nnc(-c3cc(-c4nnc(-c5ccc(OC)cc5)o4)c(-n4c5ccccc5c5ccccc54)cc3-n3c4ccccc4c4ccccc43)o2)cc1,photoluminescence quantum yield,in Cc1ccccc1,0.133
same,photoluminescence quantum yield,[1],0.354
O=Cc1cnc(-c2c3ccccc3cc3ccccc23)nc1,photoluminescence quantum yield,in CCO,0.25
same,photoluminescence quantum yield,in ClCCl,0.28
CCCC1(CCC)c2cc(-c3ccc(C(C)(C)C)cc3)ccc2-c2ccc(-c3ccc4c(c3)C(CCC)(CCC)c3cc(-c5ccc6c(c5)C(CCC)(CCC)c5cc(-c7ccc8c(c7)C(CCC)(CCC)c7cc(-c9ccc(C(C)(C)C)cc9)ccc7-8)ccc5-6)ccc3-4)cc21,photoluminescence quantum yield,in C1CCCCC1,1
CCCCCCCCc1ccc(-c2c3cc(-c4cc(CCCCCCCC)c(-c5ccc(-c6sc(/C=C7\SC(=S)N(CC)C7=O)cc6CCCCCCCC)s5)s4)sc3c(-c3ccc(CCCCCCCC)s3)c3cc(-c4cc(CCCCCCCC)c(-c5ccc(-c6sc(/C=C7\SC(=S)N(CC)C7=O)cc6CCCCCCCC)s5)s4)sc23)s1,photoluminescence quantum yield,in C1CCOC1,0.048
same,photoluminescence quantum yield,in ClC(Cl)Cl,0.027
O=P1(c2ccccc2)C(c2cc(C(F)(F)F)cc(C(F)(F)F)c2)=Cc2c3ccc4cccc5ccc(c6cc(-c7ccccc7)n1c26)c3c45 (stereo not drawn),photoluminescence quantum yield,in C1CCCCC1,0.54
same,photoluminescence quantum yield,in C1CCOC1,0.61
same,photoluminescence quantum yield,in C1COCCO1,0.62
same,photoluminescence quantum yield,in CC#N,0.63
same,photoluminescence quantum yield,in CC(C)=O,0.64
same,photoluminescence quantum yield,in CO,0.65
same,photoluminescence quantum yield,in Cc1ccccc1,0.66
same,photoluminescence quantum yield,in ClC(Cl)Cl,0.6
same,photoluminescence quantum yield,in ClCCl,0.61
C(=C\c1ccncn1)/c1ccc(N2CCCCC2)cc1,photoluminescence quantum yield,in ClCCl,0.13
Nc1ccc2c(c1)C(=O)O/C2=C\c1ccc(Cl)cc1,photoluminescence quantum yield,in CC#N,0.08
same,photoluminescence quantum yield,in CC(C)=O,0.1
same,photoluminescence quantum yield,in CC(C)CO,0.2
same,photoluminescence quantum yield,in CC(C)O,0.18
same,photoluminescence quantum yield,in CCCO,0.18
same,photoluminescence quantum yield,in CCO,0.17
same,photoluminescence quantum yield,in CCOC(C)=O,0.11
same,photoluminescence quantum yield,in CCOCC,0.12
same,photoluminescence quantum yield,in CO,0.14
CC(=O)c1nc(-c2ccc(N(c3ccccc3)c3ccccc3)cc2)oc1C,photoluminescence quantum yield,in CC#N,0.486
same,photoluminescence quantum yield,in CCO,0.264
same,photoluminescence quantum yield,in CCOC(C)=O,0.659
same,photoluminescence quantum yield,in CCOCC,0.886
same,photoluminescence quantum yield,in ClCCl,0.972
CCn1ncc2c3c(C#N)c4c5ccccc5n(C)c4nc3ccc21,photoluminescence quantum yield,in CCOC(C)=O,0.56
N#Cc1c(-n2c3ccccc3c3cc(Br)ccc32)c(-n2c3ccccc3c3cc(Br)ccc32)c(C#N)c(-n2c3ccccc3c3cc(Br)ccc32)c1-n1c2ccccc2c2cc(Br)ccc21,photoluminescence quantum yield,in Cc1ccccc1,0.53
COc1ccc(C2=N/C(=C\c3ccc(C#N)cc3)C(=O)O2)cc1OC,photoluminescence quantum yield,in C1COCCO1,0.421
CN(C)c1nc(N(C)C)c2nc(C#N)n(Cc3ccccc3)c2n1,photoluminescence quantum yield,in C1COCCO1,0.95
same,photoluminescence quantum yield,in CC#N,0.26
same,photoluminescence quantum yield,in CO,0.03
same,photoluminescence quantum yield,in ClCCl,0.2
C(=C\c1cc(/C=C/c2ccc(N(c3ccccc3)c3ccccc3)cc2)nc(/C=C/c2ccc(N(c3ccccc3)c3ccccc3)cc2)n1)/c1ccc(N(c2ccccc2)c2ccccc2)cc1,photoluminescence quantum yield,in ClCCl,0.56
CC(=O)OCCN1C(=O)c2cccc3c(Oc4ccc(C#N)cc4)ccc(c23)C1=O,photoluminescence quantum yield,in ClC(Cl)Cl,0.37
N#Cc1cc(-n2c3ccccc3c3ccccc32)c(-n2c3ccccc3c3cc(Br)ccc32)cc1C#N,photoluminescence quantum yield,in C1CCOC1,0.061
same,photoluminescence quantum yield,in c1ccc2c(c1)c1ccccc1n2-c1ccc(-c2ccc(-n3c4ccccc4c4ccccc43)cc2)cc1,0.555
C1=[N+](c2ccccc2)[B-](c2ccccc2)(c2ccccc2)Oc2c1ccc1c3c(ccc21)C=[N+](c1ccccc1)[B-](c1ccccc1)(c1ccccc1)O3,photoluminescence quantum yield,in Cc1ccccc1,0.7
same,photoluminescence quantum yield,in ClCCl,0.76
CC(C)(C)NC(=O)c1c([Si](C)(C)C)cc2ccc3cccc4ccc1c2c34,photoluminescence quantum yield,in ClC(Cl)Cl,0.151
c1cc2oc3cccc4oc5cccc6oc(c1)c2[c+](c34)c65,photoluminescence quantum yield,in CC#N,0.11
CC(C)[Si]1(C(C)C)c2cc(C#N)ccc2-c2ccc(N(c3ccccc3)c3ccccc3)cc21,photoluminescence quantum yield,in C1CCCCC1,0.64
same,photoluminescence quantum yield,in CC#N,0.67
same,photoluminescence quantum yield,in CCO,0.72
same,photoluminescence quantum yield,in CCOCC,0.74
same,photoluminescence quantum yield,in CS(C)=O,0.81
same,photoluminescence quantum yield,in ClCCl,0.8
same,photoluminescence quantum yield,in c1ccccc1,0.75
CCCC1=Cc2nc1ccc1[nH]c(cc1CCC)c1nc(c(O)cc3[nH]c2cc3CCC)C(CCC)=C1,photoluminescence quantum yield,in Cc1ccccc1,0.15
CCN(CC)c1ccc2cc(/C=C(\C#N)c3nc4ccccc4s3)c(=O)oc2c1,photoluminescence quantum yield,in C1COCCO1,0.0043
same,photoluminescence quantum yield,in CC#N,0.0027
same,photoluminescence quantum yield,in CCO,0.0048
same,photoluminescence quantum yield,in CCOC(C)=O,0.0035
same,photoluminescence quantum yield,in CN(C)C=O,0.0122
same,photoluminescence quantum yield,in CO,0.0061
same,photoluminescence quantum yield,in CS(C)=O,0.0104
same,photoluminescence quantum yield,in Cc1ccccc1,0.0036
same,photoluminescence quantum yield,in ClCCl,0.0033
CCCCCCN1C(=O)c2cccc3c(-c4ccc(-c5ccc6c7c(cccc57)C(=O)N(CCCCCC)C6=O)s4)ccc(c23)C1=O,photoluminescence quantum yield,in ClC(Cl)Cl,0.15
c1ccc(-c2nc(-c3ccccc3)c(-c3ccccc3)o2)cc1,photoluminescence quantum yield,in Cc1ccccc1,0.36
Nc1cccnc1,photoluminescence quantum yield,in C1CCCCC1,0.02
same,photoluminescence quantum yield,in CC#N,0.05
same,photoluminescence quantum yield,in CCO,0.14
same,photoluminescence quantum yield,in CCOCC,0.03
same,photoluminescence quantum yield,in O,0.16
CC(C)(C)c1ccc(-c2sc3c(-c4ccc(C(C)(C)C)cc4)c4n(c3c2-c2ccc(C(C)(C)C)cc2)[B-](F)(F)[N+]2=Cc3c(-c5ccc(C(C)(C)C)cc5)c5sc(-c6ccc(C(C)(C)C)cc6)c(-c6ccc(C(C)(C)C)cc6)c5n3[B-](F)(F)[N+]2=C4)cc1,photoluminescence quantum yield,in CC#N,0.49
same,photoluminescence quantum yield,in CCCCCC,0.64
same,photoluminescence quantum yield,in CN(C)C=O,0.45
same,photoluminescence quantum yield,in Cc1ccccc1,0.59
same,photoluminescence quantum yield,in ClCCl,0.6
C[Si]1(C)c2ccc(-c3ccc(-c4cccs4)s3)cc2C=Cc2cc(-c3ccc(-c4cccs4)s3)ccc21,photoluminescence quantum yield,in ClCCl,0.1
CN(C)c1ccc(/C=C/c2nc(N3CCOCC3)c3c([n+]2[O-])CCCC3)cc1,photoluminescence quantum yield,in ClCCl,0.01
Cc1cc(C)n2c1C=C1c3ccccc3C(c3c[nH]c4ccccc34)=[N+]1[B-]2(F)F,photoluminescence quantum yield,in C1CCOC1,0.97
same,photoluminescence quantum yield,in CC#N,0.96
same,photoluminescence quantum yield,in CCCCCC,0.99
same,photoluminescence quantum yield,in CO,0.96
same,photoluminescence quantum yield,in Cc1ccccc1,0.96
same,photoluminescence quantum yield,in ClCCl,0.98
C(=C\c1ccc(/C=C/c2ccc(N(c3ccccc3)c3ccccc3)cc2)cc1)/c1ccc(/C=C/c2ccc(N(c3ccccc3)c3ccccc3)cc2)cc1,photoluminescence quantum yield,in ClCCl,0.84
N#Cc1cc(C#N)c(-n2c3ccccc3c3c(-c4cccc5c4c4ccccc4n5-c4cc(-n5c6ccccc6c6ccccc65)c(C#N)cc4C#N)cccc32)cc1-n1c2ccccc2c2ccccc21,photoluminescence quantum yield,[1],0.61
CCOc1ccc(/C=C/C=C/C=C/c2ccc([N+](=O)[O-])cc2)cc1,photoluminescence quantum yield,in CC1CCCCC1,0.22
same,photoluminescence quantum yield,in CC#N,0.017
same,photoluminescence quantum yield,in Cc1ccccc1,0.5
same,photoluminescence quantum yield,in ClCCl,0.068
CCN(CC)c1ccc(C=Cc2nc3nc4ccccc4nc3s2)c(OC)c1,photoluminescence quantum yield,in CCO,0.32
CC[N+]1(CC)CN2C(=N1)C(C(=O)O)=Cc1cc(SC)ccc12,photoluminescence quantum yield,in O,0.308
